Laboratory results reported in US7138491B2, “Carboline-3-carboxylic acid modified related sequences of Ala-Arg-Pro-Ala-Lys, their synthesis and use as thromobolytic agent” (Guangzhou Bai Yun Shan Pharmaceutical Co., Ltd., priority 2003, dated 2006).
Marks after values point to notes of the source that are not given here.

Columns and labels:
fibrin plate = experiment: In vitro fibrinolytic lysis on fibrin plate (fibrinogen-agarose); format: biochemical, rabbit; conditions: dosage per well differs per compound (0.8-2.2 μg; UK 5 IU); n = 6; NS control 21.01 ± 9.26
Experimental: The plates were prepared by mixing equal volumes of 0.3% rabbit fibrinogen and 0.95% agarose solutions, both dissolved in 50 mM of barbital buffer (pH 7.8, contained 1.66 mM of CaCl2, 0.68 mM of MgCl2 and 93.96 mM of NaCl)^[6]. The fibrinogen-agarose mixture was coagulated with […] thrombin (100 IU: ml) in the plastic dishes (its diameter is 90 mm and the depth of the fibrin plate is 1 mm). After 30 min at 4° C. an adequate number of wells, 5 mm in diameter, were perforated. To determine fibrinolytic activity […] aliquots of the tested pseudopeptides were added to each well, the plate was incubated, and areas of lysis were quantified as described for the regular fibrin plates.

[1] = system: rabbit euglobulin fraction; experiment: In vitro euglobulin clot lysis time (ECLT); format: biochemical; conditions: dosage differs per compound (1.3-6.7 μg; UK 5 IU); 96 well microtiter plate; n = 6; NS control 200.01 ± 15.26
Experimental: The rabbit euglobulin fraction was prepared according to the literature^[6]. Plasma diluted […] in distilled water was precipitated at pH 5.7 with acetic acid (0.25%). After 30 min at 4° C. the suspension was centrifuged at 2000 g for 15 min and the precipitate was resuspended to the initial plasma volume with 50 mM barbital buffer (pH 7.8, contained 1.66 mM of CaCl2, 0.68 mM of MgCl2 and 93.96 mM of NaCl). Euglobulin clot lysis time (ECLT) of the tested pseudopeptide was measured using a 96 well microtiter plate^[7] and the data are listed in Table 2.

thrombus = experiment: In vivo thrombolytic activity, thrombus on steel helix in extracorporeal circulation; conditions: male Wistar rats; injected; dose differs per compound (3.1-8.2 mg/kg; UK 20000 IU); blood circulated 90 min; n = 10; NS control 12.31 ± 2.57
Experimental: Male Wistar rats weighing 200–300 g (purchased from Animal Center of Peking University) were anesthetized with pentobarbital sodium (80.0 mg/kg, ip). The right carotid artery and left vein jugular of the animals were separated. To the glass tube filled with artery blood (1.0 ml) from the right carotid artery of the animal a stainless steel filament helix (15 circles; L, 15 mm; D, 1.0 mm) was put immediately. After 15 minutes the helix with thrombus was carefully taken out and weighted exactly, which was put into the middle polyethylene tube. The polyethylene tube was full with heparin sodium (50 IU/ml of NS) and one end was inserted into the left jugular vein. Heparin sodium was injected via the other end of the polyethylene tube as the anticoagulant, following which the tested pseudopeptide was injected. The blood was circulated through the polyethylene tube for 90 min, after which the helix was taken out and weighted accurately.

| Substance | Effect of the pseudopeptides on fibrin plate, areas of lysis, x ± SD (fibrin plate) | Euglobulin clot lysis time, x ± SD [1] | The reduction of thrombolytic mass, x ± SD (thrombus) |
| --- | --- | --- | --- |
| H-Ala-Arg-Pro-OH [compound 9] | 23.16 ± 9.05 mm^2 | 203.81 ± 29.50 min | 13.81 ± 2.50 mg |
| H-Arg-Arg-Pro-Ala-Lys-OH (H-RRPAK-OH) [compound 6] | 33.77 ± 10.05 mm^2 | 213.31 ± 27.75 min | 13.31 ± 2.75 mg |
| H-Arg-Pro-Ala-Lys-OH (H-RPAK-OH) [compound 7] | 125.33 ± 10.10^a mm^2 | 85.22 ± 20.40^a,b min | 18.22 ± 2.40^a mg |
| H-Asn-Arg-Pro-Ala-Lys-OH (H-NRPAK-OH) [compound 5] | 22.66 ± 9.46 mm^2 | 212.88 ± 29.66 min | 12.88 ± 2.66 mg |
| H-Gln-Arg-Pro-Ala-Lys-OH (H-QRPAK-OH) [compound 4] | 136.28 ± 10.62^a mm^2 | 86.28 ± 20.46^a,b min | 21.28 ± 3.46^1)2) mg |
| H-Gly-Arg-Pro-Ala-Lys-OH (H-GRPAK-OH) [compound 2] | 125.90 ± 11.15^a mm^2 | 89.90 ± 20.05^a,b min | 25.90 ± 2.05^1) mg |
| H-Lys-Arg-Pro-Ala-Lys-OH (H-KRPAK-OH) [compound 3] | 38.99 ± 9.06 mm^2 | 221.28 ± 23.46 min | 21.28 ± 3.46^1)2) mg |
| H-Pro-Ala-Lys-OH [compound 8] | 138.06 ± 9.39^a mm^2 | 80.68 ± 20.34^a,b min | 23.68 ± 2.34^a mg |
